# Several values for one entry are separate records, joined by “and”; a condition that tells them apart may be missing. Equal entries are not always repeated.
# Experiments:
# CYP3A4 [1] = molecular target: T1, CYP3A4 (Homo sapiens, UniProt P08684)
# T1 construct: made in house
# Protocol: Reduction of the 1-bound P450 complex was observed by taking a baseline absorbance reading from 400 to 500 nm using a UV-visible scanning spectrophotometer, of a 1 cm quartz cuvette containing 1 µM P450, with compound 1 at a saturating concentration (i.e., ≥ concentration needed to reach ΔAmax), in binding assay buffer (100 mM potassium phosphate buffer (pH 7.4), 20% glycerol, and 100 mM sodium chloride). A small quantity of sodium dithionite (spatula tip-full) was then added to the cuvette, and the spectra were recorded periodically over time to observe the formation of peaks indicating the reduction (~426 and 456 nm) and subsequent reoxidation (~435 nm) of the complex. The total time course for Fig. 6B was 103 min and 37 s. Numerical data used to generate graphs in Fig. 6 are provided in Supplementary Data 3 in Excel format.
# 185 S2) Ligand binding and inhibition assays
# 186 Reduction and reoxidation assays. Reduction of the isonitrile-bound P450 complex was observed by taking
# 187 a baseline absorbance reading from 400 to 500 nm using a UV-visible scanning spectrophotometer, of a 1cm
# 188 quartz cuvette containing 1 µM P450, with the selected isonitrile compound at a saturating concentration
# 189 (i.e., ≥ concentration needed to reach ΔAmax), in the same buffer used for binding assays (100 mM potassium
# (§1) 190 phosphate buffer (pH 7.4), 20% glycerol, and 100 mM sodium chloride). A small quantity of sodium dithionite
# 191 (spatula tip-full) was then added to the cuvette, and the spectra were recorded periodically over time to
# 192 observe the formation of peaks indicating the reduction (~426 and 456 nm) and subsequent reoxidation
# 193 (~435 nm) of the complex. The total time course for Figure 6B was 103 minutes and 37 seconds. […]
# 217 initiated by adding NADPH to a final concentration of 1 mM. After 20 minutes, metabolism was quenched
# 218 by adding 50 µL acetonitrile and placed on ice. The reaction vials were centrifuged at 5000 xg for 5 minutes
# 219 to pellet the precipitated protein, then the supernatant was injected onto a C18 column (Phenomenex, Luna,
# 220 50 x 4.6 mm) for HPLC. Separation on HPLC was obtained using a mobile phase of 45%/55% water/methanol
# 221 for 40 minutes. A standard curve of known product concentrations was used to convert the area under the
# 222 curve to the amount of product produced.
# 224 S3) Crystallization of 1-CYP17A1 complex and X-ray diffraction
# 225 Protein Crystallization and Structure Determination. CYP17A1 was saturated with 3β-formyl-5α
# 226 pregnanolone-20(R)-isonitrile (verified by 430 nm Soret peak) and prepared for crystallization via hanging
# Target sequence in this assay (P08684 whole entry): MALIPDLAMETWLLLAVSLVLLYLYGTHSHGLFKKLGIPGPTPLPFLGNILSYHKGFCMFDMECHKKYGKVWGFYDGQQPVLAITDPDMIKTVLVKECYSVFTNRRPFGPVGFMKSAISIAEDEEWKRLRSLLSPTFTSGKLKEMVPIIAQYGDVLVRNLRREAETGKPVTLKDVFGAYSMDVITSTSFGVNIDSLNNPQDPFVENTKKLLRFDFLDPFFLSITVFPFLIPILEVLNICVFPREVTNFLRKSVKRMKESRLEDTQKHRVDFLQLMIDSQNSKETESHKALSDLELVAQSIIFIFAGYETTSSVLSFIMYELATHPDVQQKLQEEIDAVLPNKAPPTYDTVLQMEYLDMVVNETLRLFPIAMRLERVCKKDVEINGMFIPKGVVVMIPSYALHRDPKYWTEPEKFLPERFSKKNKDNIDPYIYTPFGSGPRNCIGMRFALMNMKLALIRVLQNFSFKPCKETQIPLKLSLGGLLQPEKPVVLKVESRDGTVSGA
# CYP3A4 [2] = molecular target: T1, CYP3A4; assay type: biochemical; conditions: concentrations up to 100 µM
# Protocol: (Adapted from Bart & Scott)[28]. Metabolic activity of CYP3A4 was evaluated by measuring metabolism of nifedipine to dehydronifedipine […], as detected by HPLC with UV detection at 254 nm. Reactions were carried out in amber microcentrifuge tubes (NFP is light sensitive) in a final volume of 150 μl. A 1:2 ratio of CYP3A4 to recombinant NADPH-cytochrome P450 reductase was mixed and incubated at room temperature for 20 min. This mixture was added to buffer (40 mM HEPES, 30 mM MgCl2, pH 7.4) containing 0.1 mM NFP and increasing concentrations of 1c (0–100 µM). Reaction vials were warmed to 37 °C for 3 min, then catalysis was initiated by adding NADPH to a final concentration of 1 mM. After 20 min, metabolism was quenched by adding 50 µL acetonitrile and placed on ice. […]
# 187 a baseline absorbance reading from 400 to 500 nm using a UV-visible scanning spectrophotometer, of a 1cm […]
# as §1
# Target sequence in this assay (P08684 23-503 limits assumed): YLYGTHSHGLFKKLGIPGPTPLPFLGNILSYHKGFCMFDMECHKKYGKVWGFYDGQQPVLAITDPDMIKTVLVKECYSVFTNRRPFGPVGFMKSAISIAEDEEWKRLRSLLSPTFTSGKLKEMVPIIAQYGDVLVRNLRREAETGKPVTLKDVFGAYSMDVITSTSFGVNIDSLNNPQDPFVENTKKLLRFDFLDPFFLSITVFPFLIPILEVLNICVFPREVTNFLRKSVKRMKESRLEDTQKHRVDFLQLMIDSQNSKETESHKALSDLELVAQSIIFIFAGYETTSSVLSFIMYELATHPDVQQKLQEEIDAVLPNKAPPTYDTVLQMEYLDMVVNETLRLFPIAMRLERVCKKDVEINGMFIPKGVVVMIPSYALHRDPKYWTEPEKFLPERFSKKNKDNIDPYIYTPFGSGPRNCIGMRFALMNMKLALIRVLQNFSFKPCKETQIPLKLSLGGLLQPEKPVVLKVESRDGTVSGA
# 191 (spatula tip-full) was then added to the cuvette, and the spectra were recorded periodically over time to […]
# 195 Metabolic activity of CYP17A1 was evaluated by measuring 17α-hydroxylation of progesterone as detected […]
# 212 dehydronifedipine, as detected by HPLC with UV detection at 254 nm. […]
# [3] = CYP3A4/20-(R)-1 complex reduced by sodium dithionite
smiles,measurement,setting,value
"[C-]#[N+][C@H](C)[C@H]1CC[C@H]2[C@@H]3CC[C@H]4C[C@@H](OC=O)CC[C@]4(C)[C@H]3CC[C@]12C [Compound 1, 3β-formyl-5α-pregnanolone-(R)-20-isonitrile]",Soret peak after reoxidation in air,"CYP3A4 [1]; CYP3A4/20-(R)-1, 103 min",~ 435 nm and 437.5 nm
same,reoxidation of reduced complex in air,"CYP3A4 [1]; CYP3A4/20-(R)-1, 103 min",slowly re-oxidizes
same,"split Soret after reduction, higher-wavelength maximum",CYP3A4 [1]; [3],454 nm
same,"split Soret after reduction, lower-wavelength maximum",CYP3A4 [1]; [3],428 nm
same,inhibition of CYP3A4-catalyzed nifedipine oxidation,CYP3A4 [2],no inhibition
